Molecular target: RIPK1 (Homo sapiens (Human), UniProt Q13546)
Assay: ADP-Glo kinase assay (RIPK1 activity, conversion of ATP to ADP)
Format: biochemical
Conditions: 5 nM RIPK1, 50 μM ATP, 6 h reaction; footnote symbol (a); read-out: RIPK1 Enzyme Avg IC50
Method: In order to measure RIPK1 activity the ADP-Glo kinase assay (Promega, Catalog #V7002) was used to measure the conversion of ATP to ADP. This enzymatic assay was performed in a 384-well white, Optiplate (Perkin Elmer, Catalog #6007299) with assay buffer consisting of 50 mM HEPES pH 7.5 (Gibco, Catalog #15630-080), 50 mM NaCl (Teknova, Catalog #S0252), 30 mM MgCl2 (Ambion, Catalog #AM9530G), 1 mM DTT (Santa Cruz Biotechnology, Catalog #sc-29089), 0.05% BSA (Sigma, Catalog #A3059-50G) and 0.02% CHAPS (Sigma, Catalog #C5070-5G). Stock solutions of the test compounds were prepared in 100% DMSO (Sigma, Catalog #D2650) and serially diluted 1:3 using 100% DMSO. Compounds were additionally diluted 1:40 in assay buffer, and 2 μL/well were transferred to the assay plate. 4 μL/well (final concentration of 5 nM) of RIPK1 protein (SignalChem, Catalog #R07-1IG-05) diluted in assay buffer and added to the assay plate followed by a 10 minute preincutation at rt. 4 μL/well of ATP (Promega, Catalog #V7002) (final concentration of 50 μM) diluted in assay buffer were then added to the assay plate followed by a 6 h reaction time. Final concentrations of RIPK1 and ATP refer to a 10 μL volume. Luminescence was measured using a BioTek Synergy™ NEO plate reader. IC50 values were calculated using a four-parameter logistic curve fit using Genedata Screener software.

RIPK1, sequence (Q13546 1-327): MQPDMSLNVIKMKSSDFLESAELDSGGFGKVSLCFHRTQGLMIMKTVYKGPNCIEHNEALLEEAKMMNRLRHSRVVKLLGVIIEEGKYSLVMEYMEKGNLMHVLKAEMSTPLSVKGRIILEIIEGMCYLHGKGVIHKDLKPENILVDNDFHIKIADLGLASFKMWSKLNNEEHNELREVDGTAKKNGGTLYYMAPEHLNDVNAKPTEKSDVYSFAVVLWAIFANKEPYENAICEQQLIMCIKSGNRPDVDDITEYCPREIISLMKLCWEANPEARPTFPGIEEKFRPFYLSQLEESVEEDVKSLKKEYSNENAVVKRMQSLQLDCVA

Molecule | IC50 [nM]
O=C(NCc1cc(F)cc(F)c1)C12CC(CO)(C1)C2 [Example 91, N-(3,5-difluorobenzyl)-3-(hydroxymethyl)bicyclo-[1.1.1]pentane-1-carboxamide] | > 50000
Cc1cccc(C2CCCN2C(=O)C23CC(N4C(=O)CCC4=O)(C2)C3)c1 (stereo not drawn) [Example 25, 1-(3-(2-(m-Tolyl)pyrrolidine-1-carbonyl)bicyclo[1.1.1]pentan-1-yl)pyrrolidine-2,5-dione] | > 50000
COC(=O)C12CC(C(=O)N3CC[C@@H](Oc4cc(F)ccc4F)C3)(C1)C2 [Example 37, Methyl (R)-3-(3-(2,5-difluorophenoxy)pyrrolidine-1-carbonyl)-bicyclo[1.1.1]pentane-1-carboxylate] | > 50000
Cc1cccc(C2CCCN2C(=O)C23CC(NC(=O)c4ccccc4)(C2)C3)c1 (stereo not drawn) [Example 117, N-(3-(2-(m-tolyl)pyrrolidine-1-carbonyl)bicyclo[1.1.1]-pentan-1-yl)benzamide] | > 50000
CCC(=O)NC12CC(C(=O)N3CCCC3c3cccc(C)c3)(C1)C2 (stereo not drawn) [Example 118, N-(3-(2-(m-tolyl)pyrrolidine-1-carbonyl)bicyclo[1.1.1]-pentan-1-yl)propionamide] | > 50000

Same assay, conditions: 5 nM RIPK1, 50 μM ATP, 6 h reaction; read-out: RIPK1 Enzyme Avg IC50

Molecule | IC50 [nM]
N#Cc1ccc2c(cnn2CC23CC(C(=O)N4N=CCC4c4cnccn4)(C2)C3)c1 (stereo not drawn) [Example 51, 1-((3-(5-(pyrazin-2-yl)-4,5-dihydro-1H-pyrazole-1-carbonyl)bicyclo[1.1.1]pentan-1-yl)methyl)-1H-indazole-5-carbonitrile] | 22
N#Cc1cccc2cn(CC34CC(C(=O)N5N=CCC5c5cc(F)cc(F)c5)(C3)C4)nc12 (stereo not drawn) [Example 142, 2-((3-(5-(3,5-difluorophenyl)-4,5-dihydro-1H-pyrazole-1-carbonyl)bicyclo[1.1.1]pentan-1-yl)methyl)-2H-indazole-7-carbonitrile] | 79
O=C(N1N=CCC1c1cc(F)cc(F)c1)C12CC(Cn3ncc4nccnc43)(C1)C2 (stereo not drawn) [Example 135, (3-((1H-pyrazolo[3,4-b]-pyrazin-1-yl)methyl)-bicyclo[1.1.1]pentan-1-yl)(5-(3,5-difluorophenyl)-4,5-dihydro-1H-pyrazol-1-yl)methanone] | 18
CP(C)(=O)c1cc(OCC23CC(C(=O)N4N=CCC4c4cc(F)cc(F)c4)(C2)C3)ncn1 (stereo not drawn) [Example 17, (5-(3,5-Difluorophenyl)-4,5-dihydro-1H-pyrazol-1-yl)(3-(((6-(dimethylphosphoryl)pyrimidin-4-yl)oxy)methyl)bicyclo[1.1.1]pentan-1-yl)methanone] | 570
O=C(N1N=CCC1c1cc(F)cc(F)c1)C12CC(Cn3ncc4c(F)cncc43)(C1)C2 (stereo not drawn) [Example 15, (5-(3,5-Difluorophenyl)-4,5-dihydro-1H-pyrazol-1-yl)(3-((4-fluoro-1H-pyrazolo[3,4-c]-pyridin-1-yl)methyl)bicyclo[1.1.1]pentan-1-yl)methanone] | 22
O=C(N1CC(F)CC1c1cccc(F)c1)C12CC(CO)(C1)C2 (stereo not drawn) [Example 24, (4-Fluoro-2-(3-fluorophenyl)pyrrolidin-1-yl)(3-(hydroxymethyl)bicyclo[1.1.1]pentan-1-yl)methanone] | 38800
O=C(N1N=CCC1c1cc(F)cc(F)c1)C12CC(CN3CC(F)(F)C3)(C1)C2 (stereo not drawn) [Example 79, (3-((3,3-difluoroazetidin-1-yl)methyl)bicyclo[1.1.1]-pentan-1-yl)(5-(3,5-difluoro-phenyl)-4,5-dihydro-1H-pyrazol-1-yl)methanone] | 425
N#Cc1cccc(OCC23CC(C(=O)N4CC(F)CC4c4cccc(F)c4)(C2)C3)c1 (stereo not drawn) [Example 107, 3-((3-(4-fluoro-2-(3-fluoro-phenyl)pyrrolidine-1-carbonyl)bicyclo[1.1.1]-pentan-1-yl)methoxy)-benzonitrile] | 183
O=C(N1N=CCC1c1cc(F)cc(F)c1)C12CC(CN3C(=O)C(F)(F)c4ccccc43)(C1)C2 (stereo not drawn) [Example 32, 1-((3-(5-(3,5-Difluorophenyl)-4,5-dihydro-1H-pyrazole-1-carbonyl)-bicyclo[1.1.1]pentan-1-yl)methyl)-3,3-difluoroindolin-2-one] | 196
O=C(N1N=CCC1c1cc(F)cc(F)c1)C12CC(Cn3cc(CO)nn3)(C1)C2 (stereo not drawn) [Example 150, (5-(3,5-difluorophenyl)-4,5-dihydro-1H-pyrazol-1-yl)(3-((4-(hydroxymethyl)-1H-1,2,3-triazol-1-yl)methyl)-bicyclo[1.1.1]pentan-1-yl)methanone] | 5460
N#Cc1cnn(CC23CC(C(=O)N4CC(F)CC4c4cccc(F)c4)(C2)C3)c1 (stereo not drawn) [Example 33, 1-((3-(4-Fluoro-2-(3-fluorophenyl)pyrrolidine-1-carbonyl)-bicyclo[1.1.1]pentan-1-yl)methyl)-1H-pyrazole-4-carbonitrile] | 466
(5-(3,5-difluorophenyl)-4,5-dihydro-1H-pyrazol-1-yl)(3-((3-methyl-1H-pyrazol-1-yl)methyl)bicyclo[1.1.1]-pentan-1-yl)methanone and (5-(3,5-difluorophenyl)-4,5-dihydro-1H-pyrazol-1-yl)(3-((5-methyl-1H-pyrazol-1-yl)methyl)bicyclo[1.1.1]-pentan-1-yl)methanone [Example 190] | 30
CCOC12CC(C(=O)N3CCCC3c3cccc(C)c3)(C1)C2 (stereo not drawn) [Example 122, (3-ethoxybicyclo[1.1.1]-pentan-1-yl)(2-(m-tolyl)-pyrrolidin-1-yl)methanone] | 998
O=C(Nc1cc(Cl)ncn1)C12CC(C(=O)N3N=CCC3c3cc(F)cc(F)c3)(C1)C2 (stereo not drawn) [Example 76, N-(6-chloropyrimidin-4-yl)-3-(5-(3,5-difluorophenyl)-4,5-dihydro-1H-pyrazole-1-carbonyl)bicyclo[1.1.1]-pentane-1-carboxamide] | 5390
O=C(N1N=CCC1c1cc(F)cc(F)c1)C12CC(Cn3nc4ccccc4n3)(C1)C2 (stereo not drawn) [Example 86, (3-((2H-benzo[d][1,2,3]-triazol-2-yl)methyl)bicyclo-[1.1.1]pentan-1-yl)(5-(3,5-difluorophenyl)-4,5-dihydro-1H-pyrazol-1-yl)methanone] | 19
(5-(3,5-difluorophenyl)-4,5-dihydro-1H-pyrazol-1-yl)(3-((6-methoxy-1H-benzo[d]-imidazol-1-yl)methyl)-bicyclo[1.1.1]pentan-1-yl)-methanone and (5-(3,5-difluorophenyl)-4,5-dihydro-1H-pyrazol-1-yl)(3-((5-methoxy-1H-benzo[d]-imidazol-1-yl)methyl)-bicyclo[1.1.1]pentan-1-yl)-methanone [Example 187] | 447
NC(=O)c1ccnc(OCC23CC(C(=O)N4CC(F)CC4c4cccc(F)c4)(C2)C3)n1 (stereo not drawn) [Example 95, 2-((3-(4-fluoro-2-(3-fluoro-phenyl)pyrrolidine-1-carbonyl)bicyclo[1.1.1]-pentan-1-yl)methoxy)-pyrimidine-4-carboxamide] | 151
N#Cc1cnc(OCC23CC(C(=O)N4CC(F)CC4c4cccc(F)c4)(C2)C3)nc1 (stereo not drawn) [Example 100, 2-((3-(4-fluoro-2-(3-fluorophenyl)pyrrolidine-1-carbonyl)bicyclo[1.1.1]-pentan-1-yl)methoxy)-pyrimidine-5-carbonitrile] | 284
NC(=O)c1cc(OCC23CC(C(=O)N4CC(F)CC4c4cccc(F)c4)(C2)C3)ncn1 (stereo not drawn) [Example 98, 6-((3-(4-fluoro-2-(3-fluorophenyl)pyrrolidine-1-carbonyl)bicyclo[1.1.1]-pentan-1-yl)methoxy)-pyrimidine-4-carboxamide] | 240
CNC(=O)C12CC(C(=O)N3N=CCC3c3cc(F)cc(F)c3)(C1)C2 (stereo not drawn) [Example 78, 3-(5-(3,5-difluorophenyl)-4,5-dihydro-1H-pyrazole-1-carbonyl)-N-methylbicyclo-[1.1.1]pentane-1-carboxamide] | 13000
CS(=O)(=O)C1CN(CC23CC(C(=O)N4N=CCC4c4cc(F)cc(F)c4)(C2)C3)C1 (stereo not drawn) [Example 80, (5-(3,5-difluorophenyl)-4,5-dihydro-1H-pyrazol-1-yl)(3-((3-(methylsulfonyl)azetidin-1-yl)methyl)bicyclo[1.1.1]-pentan-1-yl)methanone] | 24700
O=C(N1N=CCC1c1cc(F)cc(F)c1)C12CC(CN3CC(c4ccccc4)C3)(C1)C2 (stereo not drawn) [Example 154, (5-(3,5-difluorophenyl)-4,5-dihydro-1H-pyrazol-1-yl)(3-((3-phenylazetidin-1-yl)-methyl)bicyclo[1.1.1]pentan-1-yl)methanone] | 4860

Test system: human monocytic cell line U937
Assay: Human U937 cellular necroptosis assay (TNFalpha + z-VAD-FMK, Cell Titer-Glo viability)
Format: cell-based
Conditions: Homo sapiens, U-937, 22 h, U937 cells, 25 ng/mL human TNFalpha + 25 μM z-VAD-FMK, read-out: hU937 Avg IC50
Summary of the method: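 Readout is CellTiter-Glo 2.0 luminescence after 22 h at 37° C with compound, in cells triggered by human TNFalpha (25 ng/mL) and z-VAD-FMK (25 μM) in phenol red-free RPMI/10% FBS. Values are run-averaged IC50s from a four-parameter logistic curve.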

Molecule | IC50 [nM]
N#Cc1ccc2c(cnn2CC23CC(C(=O)N4N=CCC4c4cnccn4)(C2)C3)c1 (stereo not drawn) [Example 51, 1-((3-(5-(pyrazin-2-yl)-4,5-dihydro-1H-pyrazole-1-carbonyl)bicyclo[1.1.1]pentan-1-yl)methyl)-1H-indazole-5-carbonitrile] | 40
N#Cc1cccc2cn(CC34CC(C(=O)N5N=CCC5c5cc(F)cc(F)c5)(C3)C4)nc12 (stereo not drawn) [Example 142, 2-((3-(5-(3,5-difluorophenyl)-4,5-dihydro-1H-pyrazole-1-carbonyl)bicyclo[1.1.1]pentan-1-yl)methyl)-2H-indazole-7-carbonitrile] | 750
O=C(N1N=CCC1c1cc(F)cc(F)c1)C12CC(Cn3ncc4nccnc43)(C1)C2 (stereo not drawn) [Example 135, (3-((1H-pyrazolo[3,4-b]-pyrazin-1-yl)methyl)-bicyclo[1.1.1]pentan-1-yl)(5-(3,5-difluorophenyl)-4,5-dihydro-1H-pyrazol-1-yl)methanone] | 53
